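In this assay, cells in 96-well plates receive the compound at five concentrations for 48 hours. Endpoints are linearly interpolated between the surrounding concentrations. Here, GI50 denotes the concentration required for 50% inhibition of growth.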 Active and inactive are the calls of the source. Rule as the data show it: active = GI50 up to about 1.1 µM and inactive = higher.
Legend:
Assay in all cases: NCI-60 cell line screen, 48 h
[1] = test system: HT-29
[2] = test system: UO-31
[3] = test system: HCT-116
[4] = test system: SK-MEL-28
[5] = test system: IGROV-1
[6] = test system: MOLT-4
[7] = test system: NCI-H460
[8] = test system: TK-10
[9] = test system: NCI-H522
[10] = test system: SF-539
[11] = test system: OVCAR-5
[12] = test system: UACC-257
[13] = test system: SR
[14] = test system: COLO 205
[15] = test system: RXF 393
[16] = test system: A498
[17] = test system: U-251
[18] = test system: SK-MEL-2
[19] = test system: DU-145

Question: With COc1ccc(-c2cc(O)c3ccc(F)cc3n2)cc1 as the compound, how does the GI50 [1] read?
Answer: The GI50 was > 100 µM (inactive).

Question: And the GI50 [2]?
Answer: Its GI50 is > 100 µM (inactive).

Question: And the GI50 [3]?
Answer: Its GI50 is > 100 µM (inactive).

Question: What about the GI50 [4] of the same compound?
Answer: The GI50 was > 100 µM (inactive).

Question: What about the GI50 [5] of the same compound?
Answer: The GI50 was > 100 µM (inactive).

Question: And the GI50 [6]?
Answer: The GI50 was > 100 µM (inactive).

Question: What about the GI50 [7] of the same compound?
Answer: The GI50 was > 100 µM (inactive).

Question: What about the GI50 [8] of the same compound?
Answer: The GI50 was > 100 µM (inactive).

Question: What about the GI50 [9] of the same compound?
Answer: The GI50 was > 100 µM (inactive).

Question: And the GI50 [10]?
Answer: The GI50 was > 100 µM (inactive).

Question: What about the GI50 [11] of the same compound?
Answer: Its GI50 is > 100 µM (inactive).

Question: And the GI50 [12]?
Answer: Its GI50 is > 100 µM (inactive).

Question: What about the GI50 [13] of the same compound?
Answer: Its GI50 is > 100 µM (inactive).

Question: What about the GI50 [14] of the same compound?
Answer: The GI50 was > 100 µM (inactive).

Question: What about the GI50 [15] of the same compound?
Answer: The GI50 was > 100 µM (inactive).

Question: Which GI50 [1] does the source give for CCCCCC(O)(CCCCC)CCCCCCCCC1=C(O)C(=O)c2ccc(=O)[nH]c2C1=O here?
Answer: Its GI50 is 15.3 µM (inactive).

Question: And the GI50 [16]?
Answer: Its GI50 is 12.2 µM (inactive).

Question: What about the GI50 [2] of the same compound?
Answer: Its GI50 is 13.3 µM (inactive).

Question: And the GI50 [3]?
Answer: Its GI50 is 4.34 µM (inactive).

Question: What about the GI50 [17] of the same compound?
Answer: The GI50 was 4.72 µM (inactive).

Question: And the GI50 [4]?
Answer: Its GI50 is 8.32 µM (inactive).

Question: And the GI50 [5]?
Answer: Its GI50 is 5.53 µM (inactive).

Question: And the GI50 [6]?
Answer: The GI50 was 6.3 µM (inactive).

Question: And the GI50 [7]?
Answer: Its GI50 is 8.85 µM (inactive).

Question: What about the GI50 [18] of the same compound?
Answer: Its GI50 is 3.06 µM (inactive).

Question: What about the GI50 [9] of the same compound?
Answer: Its GI50 is 4.78 µM (inactive).

Question: And the GI50 [10]?
Answer: The GI50 was 7.6 µM (inactive).

Question: And the GI50 [11]?
Answer: Its GI50 is 20.3 µM (inactive).

Question: And the GI50 [12]?
Answer: Its GI50 is 3.64 µM (inactive).

Question: And the GI50 [13]?
Answer: Its GI50 is 27.3 µM (inactive).

Question: And the GI50 [14]?
Answer: The GI50 was 17.9 µM (inactive).

Question: And the GI50 [15]?
Answer: Its GI50 is 9.38 µM (inactive).

Question: For Cc1cc(NCCCCCCCCNc2cc(C)nc3cc(N(C)C)ccc23)c2ccc(N(C)C)cc2n1, which GI50 [16] is on record?
Answer: The GI50 was 17.5 µM (inactive).

Question: What about the GI50 [2] of the same compound?
Answer: Its GI50 is 75.5 µM (inactive).

Question: What about the GI50 [3] of the same compound?
Answer: The GI50 was 3.4 µM (inactive).

Question: And the GI50 [17]?
Answer: The GI50 was 1.56 µM (inactive).

Question: What about the GI50 [4] of the same compound?
Answer: Its GI50 is 0.933 µM (active).

Question: What about the GI50 [6] of the same compound?
Answer: Its GI50 is 2 µM (inactive).

Question: And the GI50 [7]?
Answer: Its GI50 is 3.01 µM (inactive).

Question: What about the GI50 [18] of the same compound?
Answer: The GI50 was 5.13 µM (inactive).

Question: What about the GI50 [8] of the same compound?
Answer: The GI50 was > 10 µM (inactive).

Question: What about the GI50 [9] of the same compound?
Answer: The GI50 was 2.75 µM (inactive).

Question: What about the GI50 [10] of the same compound?
Answer: The GI50 was 3.23 µM (inactive).

Question: What about the GI50 [12] of the same compound?
Answer: The GI50 was 3.94 µM (inactive).

Question: What about the GI50 [13] of the same compound?
Answer: Its GI50 is 2.82 µM (inactive).

Question: And the GI50 [14]?
Answer: The GI50 was 1.9 µM (inactive).

Question: What about the GI50 [15] of the same compound?
Answer: The GI50 was 12.9 µM (inactive).

Question: How did the GI50 [1] turn out when CCCCCCCCCCCCCCCCCCCCCC(=O)Nc1ccn(C2OC(CO)C(O)C2O)c(=O)n1 (configuration not stated) was run?
Answer: Its GI50 is > 100 µM (inactive).

Question: What about the GI50 [16] of the same compound?
Answer: The GI50 was 34.2 µM (inactive).

Question: And the GI50 [2]?
Answer: Its GI50 is 32.1 µM (inactive).

Question: What about the GI50 [3] of the same compound?
Answer: The GI50 was 6.89 µM (inactive).

Question: What about the GI50 [17] of the same compound?
Answer: Its GI50 is > 92.9 µM (inactive).

Question: And the GI50 [4]?
Answer: Its GI50 is > 100 µM (inactive).

Question: What about the GI50 [5] of the same compound?
Answer: Its GI50 is > 68.9 µM (inactive).

Question: What about the GI50 [6] of the same compound?
Answer: The GI50 was 0.273 µM (active).

Question: And the GI50 [7]?
Answer: Its GI50 is 2.32 µM (inactive).

Question: What about the GI50 [18] of the same compound?
Answer: The GI50 was > 100 µM (inactive).

Question: What about the GI50 [8] of the same compound?
Answer: Its GI50 is > 100 µM (inactive).

Question: And the GI50 [9]?
Answer: The GI50 was > 100 µM (inactive).

Question: And the GI50 [10]?
Answer: The GI50 was > 100 µM (inactive).

Question: What about the GI50 [11] of the same compound?
Answer: The GI50 was > 61 µM (inactive).

Question: And the GI50 [12]?
Answer: Its GI50 is > 100 µM (inactive).

Question: And the GI50 [13]?
Answer: The GI50 was 1.67 µM (inactive).

Question: And the GI50 [14]?
Answer: Its GI50 is > 54.2 µM (inactive).

Question: What about the GI50 [15] of the same compound?
Answer: The GI50 was > 100 µM (inactive).

Question: How did the GI50 [1] turn out when O=C(Cc1nc2c3c(ccc2nc1O)C(=O)c1ccccc1C3=O)C(=O)Nc1ccccc1[N+](=O)[O-] was run?
Answer: Its GI50 is 19.5 µM (inactive).

Question: And the GI50 [2]?
Answer: Its GI50 is 27.5 µM (inactive).

Question: And the GI50 [3]?
Answer: Its GI50 is 26.6 µM (inactive).

Question: And the GI50 [17]?
Answer: The GI50 was 17.7 µM (inactive).

Question: What about the GI50 [4] of the same compound?
Answer: The GI50 was 16.1 µM (inactive).

Question: And the GI50 [5]?
Answer: The GI50 was 29.6 µM (inactive).

Question: What about the GI50 [6] of the same compound?
Answer: The GI50 was 4.22 µM (inactive).

Question: And the GI50 [7]?
Answer: The GI50 was 31.9 µM (inactive).

Question: What about the GI50 [18] of the same compound?
Answer: Its GI50 is 19.1 µM (inactive).

Question: What about the GI50 [8] of the same compound?
Answer: The GI50 was 24.2 µM (inactive).

Question: And the GI50 [9]?
Answer: Its GI50 is 5.27 µM (inactive).

Question: What about the GI50 [10] of the same compound?
Answer: The GI50 was 17.6 µM (inactive).

Question: And the GI50 [11]?
Answer: Its GI50 is 21.5 µM (inactive).

Question: And the GI50 [12]?
Answer: The GI50 was 17.7 µM (inactive).

Question: What about the GI50 [13] of the same compound?
Answer: The GI50 was 11.7 µM (inactive).

Question: And the GI50 [14]?
Answer: The GI50 was 15.2 µM (inactive).

Question: For NNC(=O)C(=O)N/N=C1\CCC(=O)CC1C(=O)CCC(=O)Nc1ccc(Cl)cc1 (configuration not stated), which GI50 [1] is on record?
Answer: The GI50 was > 100 µM (inactive).

Question: What about the GI50 [16] of the same compound?
Answer: The GI50 was > 100 µM (inactive).

Question: What about the GI50 [2] of the same compound?
Answer: Its GI50 is > 100 µM (inactive).

Question: And the GI50 [3]?
Answer: Its GI50 is > 100 µM (inactive).

Question: What about the GI50 [17] of the same compound?
Answer: Its GI50 is > 100 µM (inactive).

Question: What about the GI50 [4] of the same compound?
Answer: The GI50 was > 100 µM (inactive).

Question: And the GI50 [5]?
Answer: The GI50 was > 100 µM (inactive).

Question: And the GI50 [6]?
Answer: The GI50 was > 100 µM (inactive).

Question: And the GI50 [7]?
Answer: The GI50 was > 100 µM (inactive).

Question: What about the GI50 [18] of the same compound?
Answer: The GI50 was > 100 µM (inactive).

Question: What about the GI50 [8] of the same compound?
Answer: The GI50 was > 100 µM (inactive).

Question: What about the GI50 [10] of the same compound?
Answer: Its GI50 is > 100 µM (inactive).

Question: What about the GI50 [11] of the same compound?
Answer: The GI50 was > 100 µM (inactive).

Question: And the GI50 [12]?
Answer: The GI50 was > 100 µM (inactive).

Question: And the GI50 [14]?
Answer: Its GI50 is > 100 µM (inactive).

Question: And the GI50 [15]?
Answer: Its GI50 is 72.4 µM (inactive).

Question: What does the source list for Clc1cccc2c1OCC1C(c3ccccc3)=NN(c3ccccc3)C21 (configuration not stated)?
Answer: GI50 [1]: 83.9 µM (inactive); GI50 [16]: > 100 µM (inactive); GI50 [2]: 60.8 µM (inactive); GI50 [3]: 12.9 µM (inactive); GI50 [17]: 38.9 µM (inactive); GI50 [4]: > 100 µM (inactive); GI50 [5]: > 100 µM (inactive); GI50 [6]: 35.2 µM (inactive); GI50 [7]: 59.4 µM (inactive); GI50 [18]: > 100 µM (inactive); GI50 [8]: > 100 µM (inactive); GI50 [9]: 45.4 µM (inactive); GI50 [11]: > 100 µM (inactive); GI50 [12]: 67.3 µM (inactive); GI50 [14]: > 100 µM (inactive); GI50 [15]: > 100 µM (inactive)

Question: Which results are given for CCCCCCc1ccc(CCCCCCCC(=O)O)o1?
Answer: GI50 [1]: 46.2 µM (inactive); GI50 [2]: > 100 µM (inactive); GI50 [3]: 68.5 µM (inactive); GI50 [4]: > 100 µM (inactive); GI50 [5]: > 100 µM (inactive); GI50 [6]: 16.4 µM (inactive); GI50 [7]: > 100 µM (inactive); GI50 [18]: > 100 µM (inactive); GI50 [19]: > 100 µM (inactive); GI50 [10]: > 100 µM (inactive); GI50 [11]: > 100 µM (inactive); GI50 [12]: > 100 µM (inactive); GI50 [13]: 44 µM (inactive); GI50 [14]: > 100 µM (inactive)

— ChEMBL document CHEMBL1201862, “PubChem BioAssay data set” (2004)
